1 molecule from patent publication US10168342B2, “Lipid probes and uses thereof” (THE SCRIPPS RESEARCH INSTITUTE, priority 2015, dated 2019) can be followed below.

What all share (assay): isoTOP-ABPP mapping of AEA-DA-modified peptides in Neuro2a cells
Common to all, as to assay type: cell-based

Assay [1] addresses T1, AEA-DA-modified peptides in Neuro2a cells (Mus musculus, UniProt Q99LR1).
T1 construct: endogenous in cells; host or cells: Neuro2a
The following applies: AEA-DA-modified peptide ABHD12 Q99LR1 263-284, SEQ ID NO 1; probe 100 μM, 12 replicates.

In assay [2] the target is T2, AEA-DA-modified peptides in Neuro2a cells (Mus musculus, UniProt Q9Z2Z6).
T2 construct: endogenous in cells; host or cells: Neuro2a
T2 sequence (Q9Z2Z6 whole entry): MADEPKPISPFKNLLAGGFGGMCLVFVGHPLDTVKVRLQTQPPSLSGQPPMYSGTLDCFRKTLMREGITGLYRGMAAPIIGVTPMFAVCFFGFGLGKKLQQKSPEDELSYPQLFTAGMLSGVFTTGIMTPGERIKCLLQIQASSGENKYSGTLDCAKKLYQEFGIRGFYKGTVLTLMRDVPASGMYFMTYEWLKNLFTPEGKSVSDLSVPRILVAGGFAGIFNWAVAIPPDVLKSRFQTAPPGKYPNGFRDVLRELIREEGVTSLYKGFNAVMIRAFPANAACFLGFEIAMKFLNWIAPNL
The following applies: AEA-DA-modified peptide SLC25A20 Q9Z2Z6 179-195, SEQ ID NO 103; probe 100 μM, 12 replicates.

For assay [3], the target named is T3, AEA-DA-modified peptides in Neuro2a cells (Mus musculus, UniProt O35737).
T3 construct: endogenous in cells; host or cells: Neuro2a
T3 sequence (O35737 whole entry): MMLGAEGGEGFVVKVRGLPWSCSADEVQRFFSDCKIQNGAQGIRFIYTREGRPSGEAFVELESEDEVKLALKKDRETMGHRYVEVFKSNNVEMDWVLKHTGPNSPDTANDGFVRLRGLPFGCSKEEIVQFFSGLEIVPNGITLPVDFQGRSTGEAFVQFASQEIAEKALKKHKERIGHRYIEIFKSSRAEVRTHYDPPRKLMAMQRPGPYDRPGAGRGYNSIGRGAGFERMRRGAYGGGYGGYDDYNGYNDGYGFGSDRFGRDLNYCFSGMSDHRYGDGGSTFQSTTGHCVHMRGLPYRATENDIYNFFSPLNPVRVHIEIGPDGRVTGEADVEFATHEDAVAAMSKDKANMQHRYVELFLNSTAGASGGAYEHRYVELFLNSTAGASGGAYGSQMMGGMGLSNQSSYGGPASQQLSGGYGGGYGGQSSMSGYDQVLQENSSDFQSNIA
The following applies: AEA-DA-modified peptide HNRNPH 1 O35737 50-69, SEQ ID NO 49; probe 100 μM, 12 replicates.

The target of assay [4] is T4, AEA-DA-modified peptides in Neuro2a cells (Mus musculus, UniProt Q8BJ03).
T4 construct: endogenous in cells; host or cells: Neuro2a
T4 sequence (Q8BJ03 whole entry): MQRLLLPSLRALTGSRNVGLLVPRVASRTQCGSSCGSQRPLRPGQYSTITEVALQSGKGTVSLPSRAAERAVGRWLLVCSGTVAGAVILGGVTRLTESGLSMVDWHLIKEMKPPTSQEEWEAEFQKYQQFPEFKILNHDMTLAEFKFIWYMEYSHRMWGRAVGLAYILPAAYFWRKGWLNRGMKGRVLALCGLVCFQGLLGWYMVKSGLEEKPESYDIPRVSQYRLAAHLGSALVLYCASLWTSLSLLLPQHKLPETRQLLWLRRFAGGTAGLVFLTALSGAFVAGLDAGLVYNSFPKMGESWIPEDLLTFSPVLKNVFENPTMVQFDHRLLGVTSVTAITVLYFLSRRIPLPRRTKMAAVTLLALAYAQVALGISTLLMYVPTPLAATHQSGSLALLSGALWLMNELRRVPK
The following applies: AEA-DA-modified peptide COX15 Q8BJ03 317-331, SEQ ID NO 25; probe 100 μM, 12 replicates.

Assay [5] concerns the target T5, AEA-DA-modified peptides in Neuro2a cells (Mus musculus, UniProt Q9DC61).
T5 construct: endogenous in cells; host or cells: Neuro2a
The following applies: AEA-DA-modified peptide PMPCA Q9DC61 428-451, SEQ ID NO 88; probe 100 μM, 12 replicates.

Assay [6] deals with T6, AEA-DA-modified peptides in Neuro2a cells (Mus musculus, UniProt Q791V5).
T6 construct: endogenous in cells; host or cells: Neuro2a
T6 sequence (Q791V5 whole entry): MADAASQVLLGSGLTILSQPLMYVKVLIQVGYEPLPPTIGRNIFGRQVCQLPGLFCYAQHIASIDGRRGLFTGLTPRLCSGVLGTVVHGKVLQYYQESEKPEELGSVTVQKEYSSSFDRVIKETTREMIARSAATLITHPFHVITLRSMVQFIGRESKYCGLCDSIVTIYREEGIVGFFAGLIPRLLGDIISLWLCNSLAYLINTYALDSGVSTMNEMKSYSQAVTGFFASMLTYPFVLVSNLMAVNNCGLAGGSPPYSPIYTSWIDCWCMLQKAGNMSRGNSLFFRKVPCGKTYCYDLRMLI
The following applies: AEA-DA-modified peptide MTCH2 Q791V5 91-112, SEQ ID NO 62; probe 100 μM, 12 replicates.

Assay [7] addresses T7, AEA-DA-modified peptides in Neuro2a cells (Mus musculus, UniProt P48678).
T7 construct: endogenous in cells; host or cells: Neuro2a
The following applies: AEA-DA-modified peptide LMNA P48678 281-297, SEQ ID NO 55; probe 100 μM, 12 replicates.

Assay [8] deals with T8, AEA-DA-modified peptides in Neuro2a cells (Mus musculus, UniProt P61750).
T8 construct: endogenous in cells; host or cells: Neuro2a
T8 sequence (P61750 whole entry): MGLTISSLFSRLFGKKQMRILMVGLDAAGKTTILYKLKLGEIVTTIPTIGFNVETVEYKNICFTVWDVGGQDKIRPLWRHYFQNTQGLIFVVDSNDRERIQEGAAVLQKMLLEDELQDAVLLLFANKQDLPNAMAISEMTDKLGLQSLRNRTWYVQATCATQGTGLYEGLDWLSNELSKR
The following applies: probe 100 μM, 12 replicates.

In assay [9] the target is T9, AEA-DA-modified peptides in Neuro2a cells (Mus musculus, UniProt P36536).
T9 construct: endogenous in cells; host or cells: Neuro2a
T9 sequence (P36536 whole entry): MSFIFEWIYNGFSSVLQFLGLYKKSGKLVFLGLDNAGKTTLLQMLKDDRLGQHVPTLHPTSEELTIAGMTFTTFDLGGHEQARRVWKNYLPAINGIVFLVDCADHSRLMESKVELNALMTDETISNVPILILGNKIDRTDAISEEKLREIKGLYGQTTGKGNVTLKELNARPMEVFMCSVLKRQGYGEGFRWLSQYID
The following applies: AEA-DA-modified peptide SAR1A P36536 192-199, SEQ ID NO 95; probe 100 μM, 12 replicates.

Assay [10] deals with T10, AEA-DA-modified peptides in Neuro2a cells (Mus musculus, UniProt Q9DBL9).
T10 construct: endogenous in cells; host or cells: Neuro2a
T10 sequence (Q9DBL9 whole entry): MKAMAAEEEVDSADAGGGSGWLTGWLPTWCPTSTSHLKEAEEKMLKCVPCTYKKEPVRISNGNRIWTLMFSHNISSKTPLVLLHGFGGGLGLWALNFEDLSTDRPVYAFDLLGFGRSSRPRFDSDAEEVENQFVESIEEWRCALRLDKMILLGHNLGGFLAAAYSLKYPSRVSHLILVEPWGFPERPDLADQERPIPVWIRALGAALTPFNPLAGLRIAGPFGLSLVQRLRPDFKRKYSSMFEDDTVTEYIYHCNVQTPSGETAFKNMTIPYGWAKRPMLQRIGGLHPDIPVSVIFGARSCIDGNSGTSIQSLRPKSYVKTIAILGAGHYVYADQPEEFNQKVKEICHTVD
The following applies: AEA-DA-modified peptide ABHD5 Q9DBL9 321-343, SEQ ID NO 2; probe 100 μM, 12 replicates.

Assay [11] concerns the target T11, AEA-DA-modified peptides in Neuro2a cells (Mus musculus, UniProt O09061).
T11 construct: endogenous in cells; host or cells: Neuro2a
The following applies: AEA-DA-modified peptide PSMB1 O09061 127-146, SEQ ID NO 90; probe 100 μM, 12 replicates.

T5 sequence (Q9DC61 34-524): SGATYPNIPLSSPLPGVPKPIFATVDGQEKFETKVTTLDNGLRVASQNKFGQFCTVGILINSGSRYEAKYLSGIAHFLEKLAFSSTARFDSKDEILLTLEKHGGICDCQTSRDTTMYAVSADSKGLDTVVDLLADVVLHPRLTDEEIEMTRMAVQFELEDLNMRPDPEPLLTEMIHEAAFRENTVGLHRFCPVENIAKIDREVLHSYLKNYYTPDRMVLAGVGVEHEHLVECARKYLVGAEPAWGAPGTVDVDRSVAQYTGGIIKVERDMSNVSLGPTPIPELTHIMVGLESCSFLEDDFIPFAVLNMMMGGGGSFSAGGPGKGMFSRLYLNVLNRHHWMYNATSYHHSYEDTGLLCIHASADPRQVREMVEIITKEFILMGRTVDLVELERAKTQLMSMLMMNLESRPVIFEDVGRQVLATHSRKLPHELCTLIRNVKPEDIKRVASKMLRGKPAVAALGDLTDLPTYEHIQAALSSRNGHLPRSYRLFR
T7 sequence (P48678 whole entry): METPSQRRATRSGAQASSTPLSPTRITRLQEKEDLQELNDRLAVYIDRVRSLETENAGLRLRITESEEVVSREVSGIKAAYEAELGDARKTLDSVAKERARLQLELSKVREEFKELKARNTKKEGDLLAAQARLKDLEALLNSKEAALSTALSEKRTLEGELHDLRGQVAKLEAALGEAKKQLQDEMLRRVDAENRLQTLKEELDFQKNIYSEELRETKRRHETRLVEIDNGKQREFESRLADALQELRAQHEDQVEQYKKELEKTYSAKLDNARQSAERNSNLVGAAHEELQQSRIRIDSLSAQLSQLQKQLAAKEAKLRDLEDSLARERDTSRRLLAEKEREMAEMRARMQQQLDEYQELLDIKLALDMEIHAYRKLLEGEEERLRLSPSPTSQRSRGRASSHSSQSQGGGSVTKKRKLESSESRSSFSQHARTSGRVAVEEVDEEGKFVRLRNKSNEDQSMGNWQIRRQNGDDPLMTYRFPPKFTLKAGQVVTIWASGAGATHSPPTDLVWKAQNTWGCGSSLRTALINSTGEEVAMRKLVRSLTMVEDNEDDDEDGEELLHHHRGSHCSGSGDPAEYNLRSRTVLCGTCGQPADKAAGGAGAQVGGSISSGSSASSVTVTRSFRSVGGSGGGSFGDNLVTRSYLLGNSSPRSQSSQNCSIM
T11 sequence (O09061 28-240): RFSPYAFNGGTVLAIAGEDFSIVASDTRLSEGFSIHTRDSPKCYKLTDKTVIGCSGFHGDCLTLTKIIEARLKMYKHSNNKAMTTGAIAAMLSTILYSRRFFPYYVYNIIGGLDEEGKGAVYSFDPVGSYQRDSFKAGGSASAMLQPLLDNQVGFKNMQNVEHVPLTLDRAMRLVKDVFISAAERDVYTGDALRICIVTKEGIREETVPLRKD
T1 sequence (Q99LR1 whole entry): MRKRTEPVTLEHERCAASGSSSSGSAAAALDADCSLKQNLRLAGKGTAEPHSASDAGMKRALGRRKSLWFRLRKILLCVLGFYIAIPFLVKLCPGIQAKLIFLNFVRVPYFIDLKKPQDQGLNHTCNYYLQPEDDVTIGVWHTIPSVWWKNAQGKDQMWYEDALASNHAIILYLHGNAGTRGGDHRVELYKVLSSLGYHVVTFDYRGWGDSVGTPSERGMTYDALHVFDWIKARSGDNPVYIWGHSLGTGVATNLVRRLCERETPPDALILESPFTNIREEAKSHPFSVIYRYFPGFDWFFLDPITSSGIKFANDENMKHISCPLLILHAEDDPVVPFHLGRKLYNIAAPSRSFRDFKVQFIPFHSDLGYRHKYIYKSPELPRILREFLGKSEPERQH

`C#CCCCC1(CC/C=C\C/C=C\C/C=C\CCCC(=O)NCCO)N=N1` [AEA-DA, (5Z,8Z,11Z)-N-(2-hydroxyethyl)-14-(3-(pent-4-yn-1-yl)-3H-diazirin-3-yl)tetradeca-5,8,11-trienamide]: the Times observed in assay [1] is 2; in assay [2] it was 4; in assay [3] it was 9; in [4] it was 2; in assay [5], 7; in [6], 2. The Times observed in assay [7] worked out at 2; in [8] (AEA-DA-modified peptide ARF4 P61750 39-60, SEQ ID NO 13), 9; in assay [8] (AEA-DA-modified peptide ARF4 P61750 110-128, SEQ ID NO 12) it was 2; in assay [9] it was 6; in assay [10], 6; in assay [11], 8.
